Measurements reported in patent publication US9918472B2, “Animal repellent” (SCENT SCIENCE INTERNATIONAL INC., priority 2010, dated 2018).

Columns and labels:
[1] = test system: wild-type mice (O-MACS-Cre); experiment: Freezing test, quantification of fear reaction due to odor; assay type: in vivo, mouse; settings: for Freezing time (%): mice, n=8, 20 min observation, value ± standard error, t-test vs 1,3-dioxolane; for freezing-inducing effect at too high a concentration: Example 3, FIG. 4, dilution series up to 1.082 mmol
Experimental: About 5- to 7-month-old littermate wild-type mice (O-MACS-Cre) were placed in the mouse cages set in a draft (one mouse per cage) to perform habituation for 20 min. Similarly, 20 min habituation was performed the next day. On day 3, odor pods containing odorant molecules were placed in the cages in the draft, and the mice were placed in the cages with odor pods. The behaviors of the mice from day 1 to day 3 were video-recorded and the freezing time was analyzed by FreezeFrame system manufactured by NeuroScience Inc. The time during which the mouse was motionless for 2 seconds or longer was measured as a freezing time, and the time of freezing during the 20 min observation time was shown in %. The freezing time on day 2 was shown as control without odor in the data. As the mice used for experiment, male mice were used to avoid abnormality in the olfactory sense due to the sexual cycle. […] The odor pod refers to an apparatus containing filter paper impregnated with odorant and placed in a plastic petri dish with a lid having a hole. In this experiment, 2 MB (2-methylbutyric acid) 45 μL (270.6 μmol) or TMT 35 μL (270.6 μmol) was used as the odorant molecule.
Using various compounds, the freezing test shown in Experimental Example 1 was performed. […] For the experiment, 270.6 μmol of odorant molecules were used. The abbreviations and the formal names of the odorant molecules used are as follows.
The influence of the concentration of the odorant molecule on the effect of inducing a freezing behavior was analyzed. […] The freezing behavior was analyzed by a method similar to that in Example 1. The amount of the odorant molecules used of the both compounds was 270.6 nmol for 0.001, 2.706 μmol for 0.01, 27.06 μmol for 0.1, 270.6 μmol for 1, and 1.082 mmol for 4. The odorant molecule concentration in the gas in the test system was measured by gas chromatography, and the presence of a dependency relationship between the amount of the odorant molecules used for the test and the odorant molecule concentration in the gas in the test system was confirmed.
Using the following test compounds (13 kinds), the freezing test shown in Experimental Example 1 was performed. […] For the experiment, 270.6 μmol of odorant compounds were used.

[2] = test system: mice; experiment: Acclimation test (freezing time on daily odor exposure for 8 days); assay type: in vivo, mouse
Experimental: About 5- to 7-month-old littermate wild-type mice (O-MACS-Cre) were placed in the mouse cages set in a draft (one mouse per cage) to perform habituation for 20 min. Similarly, 20 min habituation was performed the next day. On day 3, odor pods containing odorant molecules were placed in the cages in the draft, and the mice were placed in the cages with odor pods. The behaviors of the mice from day 1 to day 3 were video-recorded and the freezing time was analyzed by FreezeFrame system manufactured by NeuroScience Inc. The time during which the mouse was motionless for 2 seconds or longer was measured as a freezing time, and the time of freezing during the 20 min observation time was shown in %. The freezing time on day 2 was shown as control without odor in the data. As the mice used for experiment, male mice were used to avoid abnormality in the olfactory sense due to the sexual cycle. Each experiment was performed with n=5. The odor pod refers to an apparatus containing filter paper impregnated with odorant and placed in a plastic petri dish with a lid having a hole. In this experiment, 2 MB (2-methylbutyric acid) 45 μL (270.6 μmol) or TMT 35 μL (270.6 μmol) was used as the odorant molecule.
Acclimation test: By the method of Experimental Example 1, mice (N=8) were forced to smell the test compound (2MT) every day for 8 days, and the freezing time (%) was measured over time. As a control, mice that were forced to learn to feel fear with the smell of anisole by a method including applying an electric shock immediately after smelling anisole (hereinafter to be also referred to as fear learning mice) were used. The aforementioned fear learning mice (N=8) were forced to smell anisole every day for 8 days, and the freezing time (%) was measured over time.

Compound	Freezing time (%) ([1]; Example 4, 270.6 μmol odorant)	other results
C1COCO1 [1,3-dioxolane, reference compound]		fear reaction of the comparison odorant ([1]; Example 4, odorant used as comparison for the t-test): does not induce a fear reaction
CC1(C)NCCS1 [2,2-dimethylthiazolidine]	29.3 ± 5.2	
CC1=NCC(C)S1 (centres unmarked) [2,5-dimethyl-2-thiazoline]	55.9 ± 4.4	
Brc1nccs1 [2-bromothiazole]	4.8 ± 1.6	
CCc1nccs1 [2-ethylthiazole]	7.3 ± 1.6	
CSC1=NCCS1 [2-methylthio-2-thiazoline]	6.2 ± 3.0	
CC1=NCCS1 [2MT, 2-methyl-2-thiazoline]	49.9 ± 3.0	freezing-inducing effect at too high a concentration [1]: decreased effect; freezing time profile on smelling the odor every day for 8 days ([2]; Example 5, FIG. 5, mice N=8, not conditioned): did not decrease but rather increased
CC1CN=CS1 (centres unmarked) [5-methyl-2-thiazoline]	39.6 ± 3.5	
CC1CNCS1 (centres unmarked) [5-methylthiazolidine]	4.2 ± 2.7	
CC1=NC(C)SC1C (centres unmarked) [TMT, 2,4,5-trimethyl-3-thiazoline, reference compound]		freezing-inducing effect at too high a concentration [1]: decreased effect; freezing time compared with 2 MB (putrid odor) ([1]; Experimental Example 1, FIG. 1, mice n=5, 270.6 μmol odorant): longer freezing time
COc1ccccc1 [anisole]		freezing time profile on smelling the odor every day ([2]; Example 5, FIG. 5, fear learning mice, anisole every day for 8 days, N=8): decreased with time; freezing time with anisole the next day ([2]; Example 5, fear learning mice (electric shock after smelling anisole), N=8): not less than 50%
CCN=C=S [ethyl isothiocyanate]	14.0 ± 4.5	
CC1(C)CS1 [isobutylene sulfide]	4.3 ± 1.9	
C1CSCN1 [thiazolidine]	18.2 ± 5.3	
C1CSCCN1 [thiomorpholine]	15.9 ± 2.5	
c1ccsc1 [thiophene]	2.7 ± 1.6	
